The values that follow come from patent US11197477B2, “Aqueous capsule suspension concentrates based on 2-[(2,4-dichlorophenyl)methyl]-4,4′-dimethyl-3-isoxazolidinone” (priority 2016, dated 2021).

The conditions of data set [1]: cited from earlier work.
Data set [2] is described as follows: Solubility of the active ingredient in Solvesso 200 ND. The data set is classed as physicochemical. Conditions: at room temperature; at higher concentrations the active ingredient crystallizes out in the capsule. From the text: At higher concentrations, the active ingredient crystallizes out in the capsule.

Take `CC1(C)CON(Cc2ccc(Cl)cc2Cl)C1=O` [DCPMI, 2-[(2,4-dichlorophenyl)methyl]-4,4′-dimethyl-3-isoxazolidinone]: in data set [1], the water solubility is given as 39.5 ppm. For the same compound, in data set [2], the “solubility of the active ingredient in Solvesso 200 ND” value was 35 % by weight.

`CC1(C)CON(Cc2ccccc2Cl)C1=O` [clomazone, 2-(2-chlorobenzyl)-4,4-dimethyl-1,2-oxazolidin-3-one]: the water solubility in data set [1] was 1000 ppm.
